Assay results published in patent US10815275B2, “Antimicrobial peptoids with improved selectivity and use thereof” (priority 2018, dated 2020).
Converted amounts (≈) assume the structure as drawn. Non-standard residues stand in square brackets, D forms with d. Residues, ends and D or L forms follow the SMILES beside them. Nspe = C[C@H](NCC(=O)O)c1ccccc1; Nphe = O=C(O)CNCc1ccccc1; Nlys = NCCCCNCC(=O)O

How the values were obtained:
red blood cells = assay: Hemolytic activity on red blood cells; type: cell-based, mouse
Experimental: In order to identify, through red blood cell hemolytic activity in mice, whether the peptoids synthesized in Preparation Example 1 are cytotoxic, red blood cells isolated from 10 mL of mouse blood were washed three times with phosphate-buffered saline (PBS, mixed solution of 35 mM phosphate buffer/150 mM NaCl, pH 7.4), and then centrifuged at a centrifugal force of 1,000 ×g for 10 minutes. A 10% (v/v) red blood cell solution diluted with PBS was dispensed into a 96-well microtiter plate at 150 μL each, and then a peptide solution was added at 50 μL each. Thereafter, the 96-well microtiter plate was incubated at a temperature of 37° C. for 1 hour.
The incubated 96-well microtiter plate was centrifuged at a centrifugal force of 1,000×g for 5 minutes. Thereafter, supernatant was taken at 100 μL each and transferred to a new 96-well microtiter plate. Then, absorbance at a wavelength of 540 nm was measured (Table 6).
In this case, a value obtained in a case of being treated with 0.1% (v/v) Triton X-100 was set as 100% hemolysis, and hemolytic activity (degree of cell destruction) of the peptoids was calculated using the following Equation 1. In the Equation 1, A is absorbance of the peptoid solution at a wavelength of 540 nm, B is absorbance of 0.1% Triton X-100 at a wavelength of 540 nm, and C is absorbance of the PBS solution at a wavelength of 540 nm. In this case, Peptoid NO. […] Degree of cell destruction (% hemolysis)=(A−C)/(B−C)[…] [Equation 1]
In Table 6, HD10 means a peptoid concentration which causes 10% hemolysis of red blood cells, and HD50 means a peptoid concentration which causes 50% hemolysis of red blood cells. In addition, Hmax is a hemolysis rate (%) at 200 μM which is the highest peptoid concentration used in the experiment.
Hemolytic activity of Peptoid NOS. 1, 18 to 23, and the peptide Pexiganan was measured in the same manner as in Experimental Example 2.

B. subtilis = type: cell-based; details: 18 h
Experimental: (§1) In order to measure antimicrobial activity of the peptoids, Gram-positive B. subtilis or Gram-negative E. coli strain DH5α was treated with Peptoid NOS. 1, 18 to 23, and the peptide Pexiganan, and minimum inhibitory concentrations were measured. Peptoid NOS. 1 and 2, and the peptide Pexiganan are already known antimicrobial peptoids and peptides, and were used for the purpose of making a comparison with novel peptoids in terms of antimicrobial activity.
(§2) Specifically, B. subtilis or E. coli DHS a was inoculated into LB liquid medium, and cultured at a temperature of 37° C. for 18 hours. Thereafter, the bacteria were diluted with LB medium so that each bacterial number was 2×10^5 colony-forming units (CFU) per 1 mL, and dispensed into 96-well microtiter plates at 100 μL each. The peptoid, which is 2-fold serially diluted using sterile water, was added to each well at 100 μL each. The plates were incubated at a temperature of 37° C. for 18 hours.
(§3) Thereafter, absorbance was measured at a wavelength of 600 nm using a microplate reader (Bio-Rad). The lowest peptoid concentration that completely suppresses growth of microorganisms was measured by a minimum inhibitory concentration (MIC), and the measurement results are shown in Table 12 below. Each of the minimum inhibitory concentration values was calculated as an average value of numerical values obtained through three independent experiments.

E. coli strain DH5α = assay: Antimicrobial activity of peptoids with altered cationic residues, MIC; type: cell-based; details: LB medium, 18 h
Experimental: as §1, §2, §3

in vitro = type: cell-based; details: human
Experimental: In order to determine whether the peptoids were cytotoxic against human cell lines, […] cell line (Korean Cell Line Bank) which is a human lung cell line was cultured in a DMEM (Dulbecco's modified Eagle's medium) culture solution containing 10% (v/v) fetal bovine serum (FBS) at 5% CO2 and a temperature of 37° C. 100 μL of DMEM medium was dispensed into each well of a 96-well microtiter plate so that the number of cells was 1.3×10^4, and then incubated overnight at a temperature of 37° C. in a 5% CO2 incubator. In this case, a DMEM medium was used as a negative control. Thereafter, the peptoid which is 2-fold serially diluted using sterile water was added to each well, and then incubated for 24 hours.
After incubation, 20 μL of an MTS solution [3-(4,5-dimethylthiazol-2-yl)-5-(3-carboxymethoxyphenyl)-2-(4-sulfophenyl)-2H-tetrazolium, inner salt; MTS] was added thereto and incubated at a temperature of 37° C. for 4 hours. Thereafter, % survival was calculated by measuring absorbance at a wavelength of 490 nm using an ELISA reader. The % survival was calculated as a percentage obtained by dividing the absorbance value for a well-treated with the peptoid by the absorbance value for a well containing control cells which had not been treated with the peptoid.

E. coli strain ATCC25922 = type: cell-based; details: for MBC E. coli: ATCC25922; for MIC E. coli: ATCC25922, 18 h
Experimental: (§4) In order to measure antimicrobial activity of the peptoids, Gram-positive S. aureus strain KCTC1621, or Gram-negative E. coli strain ATCC25922 was treated with the peptoids prepared in Preparation Example 1, and minimum inhibitory concentrations were measured. Peptoid NOS. 1 and 2 are already known peptoids and were used for the purpose of making a comparison with novel peptoids in terms of antimicrobial activity.
(§5) Specifically, S. aureus strain KCTC1621 or E. coli strain ATCC25922 was inoculated into Mueller Hinton Broth (MHB2) liquid medium on which cations were adjusted, cultured at a temperature of 37° C. for 18 hours, and then subcultured for 4 hours. Thereafter, the strains were diluted with MHB2 liquid medium containing 0.2% bovine serum albumin and 0.01% acetic acid so that each bacterial number was 2×10^5 colony-forming units (CFU) per 1 mL, and dispensed into 96-well microtiter plates at 100 μL each. A peptoid stock which is 40-fold more concentrated than a concentration to be tested was added to each well at 2.5 μL or lower so that the peptoid stock was 2-fold serially diluted using sterile water. Thereafter, the plates were incubated at a temperature of 37° C. for 18 hours.
as §3, with “concentration (MIC) and a minimum bactericidal concentration (MBC),” for “concentration (MIC),”, “Table 5” for “Table 12”, “the MIC” for “the minimum inhibitory concentration”

[1] = tested on: S. aureus strain KCTC1621; type: cell-based; details: for MBC S. aureus: KCTC1621; for MIC S. aureus: KCTC1621, 18 h
Experimental: as §4, §5
as §3, with “concentration (MIC) and a minimum bactericidal concentration (MBC),” for “concentration (MIC),”, “Table 5” for “Table 12”, “the MIC” for “the minimum inhibitory concentration”

E. coli (63103 ESBL) = assay: MIC in multidrug-resistant bacteria panel, modified microdilution; type: cell-based; details: overnight, 37° C.
Experimental: (§6) Minimum inhibitory concentrations of the prepared peptoids for multidrug-resistant bacteria were measured using a modified microdilution method in Difco Mueller Hinton medium, and tests were done on a panel of bacterial pathogens which have resistance and tolerance against common antibiotics.
(§7) Briefly, a peptoid concentrate, which is 10-fold more concentrated than a final concentration, was serially diluted with a medium containing 0.2% bovine serum albumin and 0.01% acetic acid. 10 μL of the 10-fold concentrated peptoid concentrate and 90 μL of Muller Hinton medium were added to each well of a 96-well polypropylene microtitre plate. Bacteria were added to the plate so that a final concentration thereof was 2×10^5 CFU/mL, and then incubated overnight at a temperature of 37° C. The minimum inhibitory concentration was defined as a concentration at which no bacterial growth is observed.

P. aeruginosa (198B MDR) = assay: as above; type: cell-based; details: overnight, 37° C.
Experimental: as §6, §7

S. aureus (ATCC25923) = assay: as above; type: cell-based; details: overnight, 37° C.
Experimental: as §6, §7

[2] = tested on: S. epidermidis (ET-024 MRSA); assay: as above; type: cell-based; details: overnight, 37° C.
Experimental: as §6, §7

E. coli = assay: Selectivity analysis, HD10 divided by MIC for E. coli; details: HD10 of Table 6 divided by MIC for E. coli ATCC25922
Experimental: In order to identify changes in selectivity depending on alteration of degree of folding in helical structure of peptoids, selectivity of each peptoid was calculated using the resultant values measured in the Experimental Examples 1 and 2. The selectivity was obtained by dividing the HD10 value by the minimum inhibitory concentration for E. coli (Table 8).

P. aeruginosa (PA01) = assay: MIC in multidrug-resistant bacteria panel, modified microdilution; type: cell-based; details: overnight, 37° C.
Experimental: as §6, §7

[3] = Metabolic stability in human liver S9 fraction, HPLC; type: in vitro ADME; details: human
Experimental: In order to identify metabolic stability of the peptoids synthesized in Preparation Example 1, such peptoids were subjected to enzymatic reaction using S9 fraction which is a mixture of human liver tissue-extracted metabolic enzymes. Thereafter, for the reaction products, metabolites were quantitated using HPLC.
Specifically, Peptoid NOS. 1 and 4, and Pexiganan as a peptide control (40 μL each, 100 μM) were treated with […], 3.3 mM MgCl2, and 1.3 mM NADPH buffer (306 μL, pH=7.4), to prepare respective samples. The respective samples were treated with S9 fraction (2 μL, 0.1 mg/mL) and then incubated at a temperature of 37° C. When 0, 1, 4, and 24 hours had elapsed after treatment with the S9 fraction, 40 μL of each sample was taken out, and acetonitrile containing the same amount of 0.1% trifluoroacetic acid was used to stop activity of enzymes contained in the S9 fraction. Thereafter, proteins precipitated with acetonitrile were centrifuged at a condition of 1,000×g for 10 minutes at a temperature of 4° C. Then, supernatant was analyzed by HPLC to identify an amount of the remaining peptoid which had not been degraded by the enzymes in the S9 fraction.

| MIC E. coli (E. coli strain ATCC25922) | MIC S. aureus [1] | Selectivity [HD10/MIC (E. coli)] (E. coli) | remaining amount after S9 fraction treatment ([3]; s9, 24 h) | remaining at 24 h, 11.5 μM ([3]; s9, pH 7.4) | SMILES | HD10 (red blood cells) | HD50 (red blood cells) | MIC B. subtilis (B. subtilis) | MIC E. coli (E. coli strain DH5α) | CC50 at 24 h (in vitro) | MBC E. coli (E. coli strain ATCC25922) | MBC S. aureus [1] | minimum inhibitory concentration E. coli (63103 ESBL) (E. coli (63103 ESBL)) | minimum inhibitory concentration P. aeruginosa (198B MDR) (P. aeruginosa (198B MDR)) | minimum inhibitory concentration S. aureus (ATCC25923) (S. aureus (ATCC25923)) | minimum inhibitory concentration S. epidermidis (ET-024 MRSA) [2] | minimum inhibitory concentration P. aeruginosa (PA01) (P. aeruginosa (PA01)) |
| --- | --- | --- | --- | --- | --- | --- | --- | --- | --- | --- | --- | --- | --- | --- | --- | --- | --- |
| – | – | – | – | – | Cc1ccc([C@H](C)N(CC(N)=O)C(=O)CN(C(=O)CN(CCCCN)C(=O)CN(C(=O)CN(C(=O)CN(CCCCN)C(=O)CN(C(=O)CN(C(=O)CN(CCCCN)C(=O)CN(C(=O)CN(C(=O)CNCCCCN)[C@@H](C)c2ccc(C)cc2)[C@@H](C)c2ccc(C)cc2)[C@@H](C)c2ccc(C)cc2)[C@@H](C)c2ccc(C)cc2)[C@@H](C)c2ccc(C)cc2)[C@@H](C)c2ccc(C)cc2)[C@@H](C)c2ccc(C)cc2)cc1 [compound 20] | < 6.25 | 8.3 | 0.8 µM (≈ 1.55 µg/mL) | >6.1 µM | 8 µM | – | – | – | – | – | – | – |
| – | – | – | – | – | C[C@@H](c1ccc(Cl)cc1)N(CC(N)=O)C(=O)CN(C(=O)CN(CCCCN)C(=O)CN(C(=O)CN(C(=O)CN(CCCCN)C(=O)CN(C(=O)CN(C(=O)CN(CCCCN)C(=O)CN(C(=O)CN(C(=O)CNCCCCN)[C@@H](C)c1ccc(Cl)cc1)[C@@H](C)c1ccc(Cl)cc1)[C@@H](C)c1ccc(Cl)cc1)[C@@H](C)c1ccc(Cl)cc1)[C@@H](C)c1ccc(Cl)cc1)[C@@H](C)c1ccc(Cl)cc1)[C@@H](C)c1ccc(Cl)cc1 [compound 19] | < 6.25 | 10.4 | 6.1 µM (≈ 12.8 µg/mL) | >6.1 µM | 3 µM | – | – | – | – | – | – | – |
| 12.5 µM (≈ 21.9 µg/mL) | 3.1 µM (≈ 5.42 µg/mL) | 2.1 | – | – | C[C@@H](c1ccccc1)N(CC(=O)N(CCCCN)CC(=O)N(CC(=O)N(CC(=O)N(CCCCN)CC(=O)N(CC(=O)N(CC(N)=O)Cc1ccccc1)Cc1ccccc1)[C@@H](C)c1ccccc1)[C@@H](C)c1ccccc1)C(=O)CN(Cc1ccccc1)C(=O)CN(CCCCN)C(=O)CN(Cc1ccccc1)C(=O)CN(Cc1ccccc1)C(=O)CNCCCCN [compound 15] (H-[Nlys][Nphe][Nphe][Nlys][Nphe][Nspe][Nlys][Nspe][Nspe][Nlys][Nphe][Nphe]-NH2) | 26.8 | 155.8 | – | – | – | 25 µM (≈ 43.7 µg/mL) | 3.1 µM (≈ 5.42 µg/mL) | 6.3 | 6.3 | 3.1 | <0.8 to 0.8 | – |
| 25 µM (≈ 43.7 µg/mL) | 3.1 µM (≈ 5.42 µg/mL) | 3.3 | – | – | C[C@@H](c1ccccc1)N(CC(N)=O)C(=O)CN(Cc1ccccc1)C(=O)CN(CCCCN)C(=O)CN(Cc1ccccc1)C(=O)CN(Cc1ccccc1)C(=O)CN(CCCCN)C(=O)CN(Cc1ccccc1)C(=O)CN(Cc1ccccc1)C(=O)CN(CCCCN)C(=O)CN(C(=O)CN(C(=O)CNCCCCN)[C@@H](C)c1ccccc1)[C@@H](C)c1ccccc1 [compound 13] | 81.7 | > 200 | – | – | – | 25 µM (≈ 43.7 µg/mL) | 6.3 µM (≈ 11 µg/mL) | 6.3 | 6.3 | 3.1 | <0.8 to 0.8 | 6.3 |
| 12.5 µM (≈ 21.5 µg/mL) | 3.1 µM (≈ 5.34 µg/mL) | 7.1 | ≥ 60% | 74% | C[C@@H](c1ccccc1)N(CC(=O)N(CCCCN)CC(=O)N(CC(=O)N(CC(=O)N(CCCCN)CC(=O)N(CC(=O)N(CC(=O)N(CCCCN)CC(=O)N(CC(=O)N(CC(N)=O)Cc1ccccc1)Cc1ccccc1)Cc1ccccc1)Cc1ccccc1)Cc1ccccc1)Cc1ccccc1)C(=O)CN(Cc1ccccc1)C(=O)CNCCCCN [compound 4] (H-[Nlys][Nphe][Nspe][Nlys][Nphe][Nphe][Nlys][Nphe][Nphe][Nlys][Nphe][Nphe]-NH2) | 89.6 | > 200 | – | – | – | 25 µM (≈ 43 µg/mL) | 3.1 µM (≈ 5.34 µg/mL) | – | 6.3 | – | <0.8 to 0.8 | 6.3 |
